Measurements: US10918734B2 (Immunomedics, Inc., priority 2017, dated 2021)
Read-outs that look alike come from different tables or passages of the source.

Tests used:
p21^Waf1/Cip1 = experiment: p21Waf1/Cip1 expression in tumor cells; format: cell-based, human
Description: (§1) SN-38 is known to activate several signaling pathways in cells, leading to apoptosis (e.g., Cusack et al., 2001, Cancer Res 61:3535-40; Liu et al. 2009, Cancer Lett 274:47-53; Lagadec et al., 2008, Br J Cancer 98:335-44). Our initial studies examined the expression of 2 proteins involved in early signaling events (p21^Waf1/Cip1 and p53) and 1 late apoptotic event [cleavage of poly-ADP-ribose polymerase (PARP)] in vitro (not shown).

Capan-1 tumors = experiment: Capan-1 xenograft therapy; format: in vivo, nude mice; settings: day 140; 0.2 mg/kg SN-38 twice weekly x 4 weeks
[1] = system: poly-ADP-ribose polymerase (PARP); experiment: Cleavage of PARP in tumor cells; format: cell-based, human; settings: BxPC-3 and Calu-3
Description: as §1
(§2) In addition, p53 expression in cells exposed to the ADC was higher in both cell lines compared to SN-38 (not shown). […] In terms of later apoptotic events, cleavage of PARP was evident in both cell lines when incubated with either SN-38 or the conjugate (not shown). […] The higher degree of cleavage with free SN-38 over the ADC was consistent with the cytotoxicity findings.

[2] = Tolerability in Cynomolgus monkeys; format: in vivo, Cynomolgus monkeys (Macaca fascicularis)
p53 = p53 expression in tumor cells; format: cell-based, human; settings: BxPC-3 and Calu-3
Description: as §1, §2

[3] = mouse, in vivo
[4] = system: BxPC3 human pancreatic carcinoma; settings: FIG. 2
[5] = system: diverse metastatic cancers; experiment: Phase I/II clinical trial of IMMU-132 (Example 8): response and TTP; format: in vivo, human
[6] = human, in vivo
[7] = Tolerability in Swiss-Webster mice; settings: normal mice; 1,500 mg/kg of the conjugate
[8] = system: human SCLC tumors (DMS 53); format: in vivo, C.B.-17 SCID mice
Description: Female C.B.-17 SCID mice were injected s.c. with a tumor suspension made from of DMS 53 stock tumors (20% w/v) plus cells harvested from tissue culture (5×10^6 cells per mouse) mixed 1:1 with matrigel. […] All were administered twice weekly for 4 weeks. Two groups received only chemotherapy of either cisplatinum (5 mg/kg i.p.) or carboplatin (50 mg/kg i.p.) weekly for 4 weeks. […] A final untreated control group of mice received saline (100 μL i.p. twice weekly×4 wks). Tumors were measured and mice weighed twice weekly.

Calu-3 tumors = experiment: Calu-3 xenograft therapy; format: in vivo, nude mice; settings: 0.4 mg/kg SN-38; tumor-free until day 147
Rad51 [9] = experiment: Rad51 expression in tumors taken from treated mice; format: in vivo; settings: parental, C13 and C39 tumors
C39 tumors = experiment: MDA-MB-231 Trop-2 transfectant C39 tumor therapy; format: in vivo, mice; settings: for median survival time (MST): IMMU-132 0.5 mg twice wkly × 4, irinotecan 40 mg/kg q2dx5
Description: (§3) Rad51 and DNA-breaks (g-H2A.X) were determined by Western blot. […] Tumors were measured and mice weighed twice weekly. Study survival endpoint was tumor progression to >1.0 cm^3.

[10] = human, in vivo; remark: listed apart in the source
MDA-MB-231 tumors = experiment: MDA-MB-231 parental tumor therapy; format: in vivo, mice
Description: as §3

C13 tumors = experiment: MDA-MB-231 Trop-2 transfectant C13 tumor therapy; format: in vivo, mice; settings: for median survival time (MST): IMMU-132 0.5 mg twice wkly × 4, irinotecan 40 mg/kg q2dx5
Description: as §3

Rad51 [11] = experiment: Rad51 levels by Western blot in cells exposed to IMMU-132; format: cell-based, human; settings: for increase in Rad51 level: MDA-MB-231, 24-h exposure
Description: as §3

advanced GI cancers = experiment: Phase I/II trial of IMMU-132 in advanced GI cancers: best response by RECIST, TTP; format: in vivo, human
Description: Patients with metastatic cancers were enrolled after failing standard therapy, starting at a dose of 8.0 mg/kg given on days 1 and 8 of a 3-week cycle.
Sixty patients with advanced GI cancers were enrolled in a Phase I/II trial.

[12] = system: SK-MES-1 squamous cell lung carcinoma; experiment: SK-MES-1 antitumor effect (FIG. 18); format: in vivo
HCC1806 TNBC = HCC1806 TNBC antitumor effect (FIG. 17); format: in vivo
[13] = plasma esterase; cited from earlier work
[14] = system: SK-MES-1 human squamous cell lung tumors; experiment: SK-MES-1 xenograft therapy; set-up: species or system nude mice; settings: mouse, in vivo
[15] = day 73, IMMU-132 250 μg (alone twice weekly, in combination weekly)

hRS7-CL2A-SN-38
increase in p21Waf1/Cip1 expression over free SN-38 (p21^Waf1/Cip1; Calu-3): more than 2 fold
mice tumor-free at end of study (Capan-1 tumors): 50%
cleavage of PARP [1]: evident
blood count data ([2]; 2×0.96 mg SN-38/kg, transient decreases): values did not fall below normal ranges
human equivalent dose of MTD (2 doses) ([2]; cynomolgus monkey, in vivo): 0.3-0.6 mg/kg SN-38
exposure time at which upregulation of p53 was evident (p53): ≤ 24 h
AST level [3]: > 298 U/L
histology at termination [3]: no histologic evidence of tissue damage
glucose levels (slightly elevated) ([3]; 8 mg/kg): 273 to 320 mg/dL
mice with slightly elevated glucose levels ([3]; 8 mg/kg): 5 of 7
therapeutic efficacy vs control treatments [4]: better therapeutic efficacy than control treatments

hRS7-SN-38
reduction in target lesions at first CT assessment ([5]; person with CRC, starting dose 8 mg/kg): 37%
SN-38 released daily [6]: 50%
time within which the conjugate cleared from the serum [6]: ≤ 3 days
cumulative human equivalent dose tolerated by monkeys ([2]; cynomolgus monkey, in vivo): 22 mg/m^2
dose tolerated by monkeys ([2]; only minor, reversible toxicities): 24 mg SN-38 equivalents/kg
cumulative dose over 1 week without acute toxicity [7]: 24 mg/kg SN-38

N.N.[Cl][Pt][Cl] [cisplatinum, reference compound]
mean tumor volume [8, 15]: 0.758±0.240 cm^3

hRS7 IgG
effect on p21Waf1/Cip1 expression (p21^Waf1/Cip1): no appreciable effect
exposure time at which upregulation of p53 was evident (p53): 48 h

CCc1c2c(nc3ccc(O)cc13)-c1cc3c(c(=O)n1C2)COC(=O)[C@]3(O)CC [SN-38, reference compound]
cleavage of PARP [1]: evident
exposure time at which upregulation of p53 was evident (p53): 48 h

hRS7-CL2-SN-38
time within which all mice were cured (Calu-3 tumors): ≤ 28 days
mice tumor-free at end of study (Capan-1 tumors): 40%

IMMU-132
CT-assessable PDC patients with SD ([5]; 8 of 13): 62%
patients with disease response ([5]; 48 patients (excluding PDC)): 79%
Rad51 in tumors from treated mice (Rad51 [9]): up-regulation of Rad51 within 24 h
effect on tumor growth (C39 tumors; FIG. 21): effective to inhibit tumor growth
median survival time (MST) (C39 tumors): > 70 days
Abdominal pain, Grade 3 [10]: 0
Abdominal pain, Grade 4 [10]: 0
Anemia, Grade 3 [10]: 2 (4%)
Anemia, Grade 4 [10]: 0
Deep vein thrombosis, Grade 3 [10]: 1 (2%)
Deep vein thrombosis, Grade 4 [10]: 0
Diarrhea, Grade 3 [10]: 4 (9%)
Diarrhea, Grade 4 [10]: 0
Dysgeusia, Grade 3 [10]: 0
Dysgeusia, Grade 4 [10]: 0
Fatigue, Grade 3 [10]: 4 (9%)
Fatigue, Grade 4 [10]: 0
Hypokalemia, Grade 3 [10]: 1 (2%)
Hypokalemia, Grade 4 [10]: 0
Nausea, Grade 3 [10]: 0
Nausea, Grade 4 [10]: 0
Neutropenia, Grade 3 [10]: 11 (24%)
Neutropenia, Grade 4 [10]: 2 (4%)
Pyrexia, Grade 3 [10]: 0
Pyrexia, Grade 4 [10]: 0
Vomiting, Grade 3 [10]: 1 (2%)
Vomiting, Grade 4 [10]: 0
WBC Decrease, Grade 3 [10]: 1 (2%)
WBC Decrease, Grade 4 [10]: 0
neutropenia ≥G3 [10]: 28%
median survival time (MST) (MDA-MB-231 tumors; 0.5 mg twice wkly × 4, endpoint tumor >1.0 cm^3): 21 days
effect on tumor growth (MDA-MB-231 tumors; FIG. 19): no effect on tumor growth
effect on survival (MDA-MB-231 tumors; FIG. 22): no antitumor effect on survival
efficacy (MDA-MB-231 tumors; past studies, FIG. 16): neither IMMU-132 nor irinotecan demonstrated any efficacy
effect on tumor growth (C13 tumors; FIG. 20): effective to inhibit tumor growth
median survival time (MST) (C13 tumors): > 70 days
Rad51 up-regulation above untreated background (Rad51 [11]; C13 and C39, 24 h): ~2.5 fold
increase in Rad51 level (Rad51 [11]; 25 nM SN-38-equivalents): greater than 2 fold
increase in Rad51 level (Rad51 [11]; 100 nM): 4 fold
increase in Rad51 levels (Rad51 [11]; MDA-MB-231 cells, 24 h): > 2 fold
change in Rad51 (Rad51 [11]; SK-MES-1, HCC1806): Neither SK-MES-1 nor HCC1806 cells demonstrated any increases in Rad51
effect on Rad51 levels (Rad51 [11]; SK-MES-1 or HCC1806): no effect
gastric cancer patients with SD (advanced GI cancers; 3 with CT assessment): 3
esophageal cancer patients with PR (advanced GI cancers; 8 with CT assessment): 1
esophageal cancer patients with SD (advanced GI cancers; 8 with CT assessment): 4
pancreatic cancer patients with SD as best response (advanced GI cancers; 15 treated (5 at 8, 7 at 10, 3 at 12 mg/kg)): 7
CRC patients with SD as best response by RECIST (advanced GI cancers; 29 CRC patients): 14
CRC patients with PR as best response by RECIST (advanced GI cancers; 29 CRC patients (9 at 10 mg/kg, 20 at 8 mg/kg)): 1
extent of the PR (advanced GI cancers; CRC): ~65%
antitumor effects [12]: significant antitumor effects
antitumor effects (HCC1806 TNBC): significant antitumor effects
antitumor effect compared to saline control ([8]; 500, 250 or 100 μg i.p. twice weekly for 4 weeks): significant antitumor effect
mean tumor volume [8, 15]: 0.745±0.162 cm^3

CCc1c2c(nc3ccc(OC(=O)N4CCC(N5CCCCC5)CC4)cc13)-c1cc3c(c(=O)n1C2)COC(=O)[C@]3(O)CC [irinotecan, reference compound]
Rad51 in tumors from treated mice (Rad51 [9]): up-regulation of Rad51 within 24 h
median survival time (MST) (C39 tumors): 28 days
conversion rate to SN-38 [13]: greater than 50%
median survival time (MDA-MB-231 tumors; 40 mg/kg q2dx5): 26.5 days
median survival time (C13 tumors; 40 mg/kg q2dx5): 35 days
median survival time (MST) (C13 tumors): 35 days
antitumor effect vs specific hRS7-SN-38 conjugate [14]: provided the same antitumor effects
antitumor effects [12]: significant antitumor effects

N.N.O=C([O-])C1(C(=O)[O-])CCC1.[Pt+2] [carboplatin, reference compound]
mean tumor volume ([8]; day 41 (therapy day 14)): 0.602±0.224 cm^3

hA20-CL2A-SN-38 [reference compound]
mice tumor-free at end of study (Capan-1 tumors): 20%
antitumor effect vs specific hRS7-SN-38 conjugate [14]: provided the same antitumor effects
